# Where two headings read alike, the source gives them in different places.
# Columns and labels:
# Assay type in all cases: cell-based
# [1] = tested on: Aspergillus fumigatus TIMM1776
# Experimental: (§1) The antifungal activities of the compounds synthesized in Examples 1 and 3 to 7 were measured by a liquid medium dilution method. Candida albicans TIMM0136, Cryptococcus neoformans TIMM0354 or Aspergillus fumigatus TIMM1776 was inoculated into a medium containing one of the compounds diluted serially, and cultured at 30° C. for two days. […] For the measurements, a medium containing 0.67% Yeast Nitrogen Base (Difco) and 1.0% glucose (YNBG medium) was used for the cultures of Candida albicans and Cryptococcus neoformans, and a medium containing 0.5% Brain Heart Infusion Bouillon (Nissui) (BHI medium) was used for the culture of Aspergillus fumigatus.
# [2] = tested on: Candida albicans TIMM0136
# Experimental: as §1
# [3] = tested on: Cryptococcus neoformans TIMM0354
# Experimental: as §1
Structure (SMILES),"MIC (μg/ml) A.f. ([1]; Aspergillus fumigatus TIMM1776, BHI medium, 30° C., two days, growth almost completely inhibited)",MIC (μg/ml) C.a. [2],MIC (μg/ml) C.n. [3],MIC (μg/ml) A.f. ([1]; TIMM1776)
"CCCCCCCCCCCCCC1CC(=O)N[C@@H](C)C(=O)N[C@@H](CCCN)C(=O)N[C@@H](CC(N)=O)C(=O)N[C@@H](CO)C(=O)N[C@@H](CO)C(=O)N[C@H](CC(N)=O)C(=O)N[C@H]([C@@H](C)O)C(=O)NCC(=O)O1 (mixture of isomers) [Compound 3, cyclo(-L-Ala-L-Orn-L-Asn-L-Ser-L-Ser-D-Asn-D-allo-Thr-Gly-(±)-Hhd-)]",,6.25 µg/mL,3.12 µg/mL,1.56 µg/mL
"CCCCCCCCCCCCCC1CC(=O)N[C@@H](C)C(=O)N[C@@H](CCCN)C(=O)N[C@@H](CC(=O)O)C(=O)N[C@@H](CO)C(=O)N[C@@H](CO)C(=O)N[C@H](CC(N)=O)C(=O)N[C@H]([C@@H](C)O)C(=O)NCC(=O)O1 (mixture of isomers) [Compound 4, cyclo(-L-Ala-L-Orn-L-Asp-L-Ser-L-Ser-D-Asn-D-allo-Thr-Gly-(±)-Hhd-)]",,6.25 µg/mL,6.25 µg/mL,
"CCCCCCCCCCCCCC1CC(=O)N[C@@H](C)C(=O)N[C@@H](CCCN)C(=O)N[C@@H](CCC(=O)O)C(=O)N[C@@H](CO)C(=O)N[C@@H](CO)C(=O)N[C@H](CC(N)=O)C(=O)N[C@H]([C@@H](C)O)C(=O)NCC(=O)O1 (mixture of isomers) [Compound 5, cyclo(-L-Ala-L-Orn-L-Glu-L-Ser-L-Ser-D-Asn-D-allo-Thr-Gly-(±)-Hhd-)]",,3.12 µg/mL,6.25 µg/mL,0.39 µg/mL

# The next lines start with the values.
"MIC (μg/ml) A.f. ([1]; Aspergillus fumigatus TIMM1776, BHI medium, 30° C., two days, growth almost completely inhibited)",MIC (μg/ml) C.a. [2],MIC (μg/ml) C.n. [3],MIC (μg/ml) A.f. ([1]; TIMM1776),Structure (SMILES)
1.56 µg/mL,,,,"CCCCCCCCCCCCCC1CC(=O)N[C@@H](C)C(=O)N[C@@H](CCCN)C(=O)NCCC(=O)N[C@@H](CO)C(=O)N[C@@H](CO)C(=O)N[C@H](CC(N)=O)C(=O)N[C@H]([C@@H](C)O)C(=O)NCC(=O)O1 (mixture of isomers) [Compound 1, cyclo(-L-Ala-L-Orn-β-Ala-L-Ser-L-Ser-D-Asn-D-allo-Thr-Gly-(±) -Hhd-)]"
,12.5 µg/mL,3.12 µg/mL,,"CCCCCCCCCCCCCC1CC(=O)N[C@@H](C)C(=O)N[C@@H](CCCN)C(=O)NCC(=O)N[C@@H](CO)C(=O)N[C@@H](CO)C(=O)N[C@H](CC(N)=O)C(=O)N[C@H]([C@@H](C)O)C(=O)NCC(=O)O1 (mixture of isomers) [Compound 6, cyclo(-L-Ala-L-Orn-Gly-L-Ser-L-Ser-D-Asn-D-allo-Thr-Gly-(±)-Hhd-)]"
,6.25 µg/mL,3.12 µg/mL,0.78 µg/mL,"CCCCCCCCCCCCCC1CC(=O)N[C@@H](C)C(=O)N[C@@H](CCCN)C(=O)N[C@@H](CO)C(=O)N[C@@H](CO)C(=O)N[C@@H](CO)C(=O)N[C@H](CC(N)=O)C(=O)N[C@H]([C@@H](C)O)C(=O)NCC(=O)O1 (mixture of isomers) [Compound 7, cyclo(-L-Ala-L-Orn-L-Ser-L-Ser-L-Ser-D-Asn-D-allo-Thr-Gly-(±)-Hhd-)]"
,> 200 µg/mL,> 200 µg/mL,> 200 µg/mL,CCCCCCCCCCCCCC1CC(=O)N[C@@H](C)C(=O)N[C@@H](CCCN)C(=O)NCCC(=O)N[C@@H](CO)C(=O)N[C@@H](CO)C(=O)N[C@H](CC(N)=O)C(=O)N[C@H]([C@H](C)O)C(=O)NCC(=O)O1 (stereo partly drawn) [AA^7:D-Thr-substituted analog]
,> 200 µg/mL,> 200 µg/mL,> 200 µg/mL,CCCCCCCCCCCCCC1CC(=O)N[C@@H](C)C(=O)N[C@@H](CCCN)C(=O)NCCC(=O)N[C@@H](CO)C(=O)N[C@@H](CO)C(=O)N[C@H](CC(N)=O)C(=O)N[C@@H]([C@@H](C)O)C(=O)NCC(=O)O1 (stereo partly drawn) [AA^7:L-Thr-substituted analog]

# — patent US7442683B2, “Cyclic peptide” (Takara Bio Inc., priority 2001, dated 2008)
